Results from US12661410B2, “Compounds for targeted degradation of RET” (C4 Therapeutics, Inc., priority 2020, dated 2026).
Where a chain is given by its changes, count along the chain named.

What was measured:
[1] = target: T1, RET(KD: 658-1114 G810R) (Homo sapiens, UniProt P07949, G810R); assay: HiBiT-Degradation, RET G810R degradation assay (Nano-Glo HiBiT Lytic), 293T.165 cells; format: cell-based; settings: for Emax / DC50: 6.0 hours; for Emax: % remaining protein, read-out: 293T.165 RET(KD: 658-1114 G810R) 6.0 hours (Emax); for DC50: half-maximal degradation concentration, read-out: 293T.165 RET(KD: 658-1114 G810R) 6.0 hours (DC50)
T1 construct: 658-1114; expressed in transfected cells; host or cells: 293T.165 (293T cells, generated in-house)
T1 sequence (P07949 658-1114 G810R): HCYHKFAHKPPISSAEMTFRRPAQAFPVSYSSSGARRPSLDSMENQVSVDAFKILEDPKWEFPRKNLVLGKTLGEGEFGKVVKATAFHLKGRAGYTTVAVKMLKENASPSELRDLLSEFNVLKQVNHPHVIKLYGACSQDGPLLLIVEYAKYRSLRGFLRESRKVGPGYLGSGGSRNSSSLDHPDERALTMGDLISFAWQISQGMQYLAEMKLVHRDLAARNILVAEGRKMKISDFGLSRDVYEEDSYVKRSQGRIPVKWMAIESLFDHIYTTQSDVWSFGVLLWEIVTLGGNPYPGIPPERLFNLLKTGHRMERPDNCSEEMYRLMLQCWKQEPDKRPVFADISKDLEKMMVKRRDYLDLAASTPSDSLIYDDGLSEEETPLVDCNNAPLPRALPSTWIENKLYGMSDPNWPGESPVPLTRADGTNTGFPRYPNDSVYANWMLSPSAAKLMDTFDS
Summary of the method: (§1)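 Engineered 293T cells carry a HiBiT tag on the RET kinase domain, either wild type (line 293T.144) or G810R (line 293T.165). Compounds act for 6 h across a 10 μM-top, half-log 11-point range. Lytic HiBiT luminescence gives remaining protein, fitted for DC50 and Emax.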

[2] = target: T2, RET (658-1114) (Homo sapiens, UniProt P07949); assay: HiBiT-Degradation, RET wild-type degradation assay (Nano-Glo HiBiT Lytic), 293T.144 cells; format: cell-based; settings: for Emax / DC50: 6.0 hours; for Emax: % remaining protein, read-out: 293T.144 RET (658-1114) 6.0 hours (Emax); for DC50: half-maximal degradation concentration, read-out: 293T.144 RET (658-1114) 6.0 hours (DC50)
T2 construct: 658-1114; expressed in transfected cells; host or cells: 293T.144 (293T cells, generated in-house)
T2 sequence (P07949 658-1114): T1 sequence (P07949 658-1114 G810R) with R153G
Summary of the method: as §1

Row | Compound | 293T.165 RET(KD: 658-1114 G810R) 6.0 hours (IP) [nM] [1] | Emax [1] [%] | DC50 [1] [nM] | 293T.144 RET (658-1114) 6.0 hours (IP) [nM] [2] | Emax [2] [%] | DC50 [2] [nM]
1 | COc1cc(N2CCN([C@H]3CC[C@H](n4cc(-c5cn6ncc(C#N)c6c(-c6ccc(N7C[C@H]8COC[C@@H](C7)N8CC7CCOCC7)nc6)n5)cn4)CC3)CC2)c(F)cc1NC1CCC(=O)NC1=O (single isomer, unassigned) [Compound 166] | ++++ (<50 nM = ++++) | < 30 | < 100 | ++++ (<50 nM = ++++) | < 30 | < 50
2 | CCC1(NC(=O)c2ncccc2Cl)CCN(c2ccc(-c3nc(-c4cnn([C@H]5CC[C@@H](N6CCN(c7ccc8c(N9CCC(=O)NC9=O)nn(C)c8c7F)CC6)CC5)c4)cn4ncc(C#N)c34)cn2)CC1 (single isomer, unassigned) [Compound 170, 3-Chloro-N-(1-(5-(3-cyano-6-(1-((1s, 4s)-4-(4-(3-(2,4-dioxotetrahydropyrimidin-1(2H)-yl)-7-fluoro-1-methyl-1H-indazol-6-yl)piperazin-1-yl)cyclohexyl)-1H-pyrazol-4-yl)pyrazolo[1,5-a]pyrazin-4-yl)pyridin-2-yl)-4-ethylpiperidin-4-yl)picolinamide] | ++++ (<50 nM = ++++) | < 30 | < 100 | ++++ (<50 nM = ++++) | < 30 | < 50
3 | N#Cc1cnn2cc(-c3cnn([C@H]4CC[C@@H](N5CCN(c6ccc(N[C@H]7CCC(=O)NC7=O)cc6F)CC5)CC4)c3)nc(-c3ccc(N4CC5CC(C4)N5C(=O)c4c(F)cccc4F)nc3)c12 (single isomer, unassigned) [Compound 171] | ++++ (<50 nM = ++++) | < 30 | < 50 | ++++ (<50 nM = ++++) | < 30 | < 50
4 | N#Cc1cnn2cc(-c3cnn([C@H]4CC[C@@H](N5CCN(c6ccc(N[C@@H]7CCC(=O)NC7=O)cc6F)CC5)CC4)c3)nc(-c3ccc(N4CC5CC(C4)N5C(=O)c4c(F)cccc4F)nc3)c12 (single isomer, unassigned) [Compound 172] | ++++ (<50 nM = ++++) | < 30 | < 50 | ++++ (<50 nM = ++++) | < 30 | < 50
5 | N#Cc1cnn2cc(-c3cnn([C@H]4CC[C@@H](N5CCN(c6ccc(NC7CCC(=O)NC7=O)cc6F)CC5)CC4)c3)nc(-c3ccc(N4CC5CC(C4)N5CC4CCC(F)(F)CC4)nc3)c12 (single isomer, unassigned) [Compound 178, 4-(6-(6-((4,4-Difluorocyclohexyl)methyl)-3,6-diazabicyclo[3.1.1]heptan-3-yl)pyridin-3-yl)-6-(1-((1s, 4s)-4-(4-(4-((2,6-dioxopiperidin-3-yl)amino)-2-fluorophenyl)piperazin-1-yl)cyclohexyl)-1H-pyrazol-4-yl)pyrazolo[1,5-a]pyrazine-3-carbonitrile] | ++++ (<50 nM = ++++) | < 30 | < 50 | ++++ (<50 nM = ++++) | < 30 | < 50
6 | N#Cc1cnn2cc(-c3cnn([C@H]4CC[C@H](N5CCC(c6ccc(N[C@H]7CCC(=O)NC7=O)cc6F)CC5)CC4)c3)nc(-c3ccc(N4CCC5(CC4)OCc4cccnc45)nc3)c12 (single isomer, unassigned) [Compound 179] | ++++ (<50 nM = ++++) | < 30 | < 50 | ++++ (<50 nM = ++++) | < 30 | < 50
7 | N#Cc1cnn2cc(-c3cnn([C@H]4CC[C@H](N5CCC(c6ccc(N[C@@H]7CCC(=O)NC7=O)cc6F)CC5)CC4)c3)nc(-c3ccc(N4CCC5(CC4)OCc4cccnc45)nc3)c12 (single isomer, unassigned) [Compound 180] | ++++ (<50 nM = ++++) | < 30 | < 50 | ++++ (<50 nM = ++++) | < 30 | < 50
